Experimental data as given in PubChem BioAssay (NCI).
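Briefly, cells in 96-well plates were exposed to five compound concentrations for 48 h, and endpoints were estimated by linear interpolation. The concentration for full growth arrest is given as TGI.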

What follows are molecules tested on NCI-H522 lung (assay: growth of human tumour cells (NCI), 48 h).

Compound | TGI [µM]
Cc1cccc(NC(=O)/C=C/c2ccc(N(CCC#N)CCC#N)cc2C)c1 | > 100
O=C(Nc1ccc([N+](=O)[O-])cc1)C1C(=O)C(=O)N(c2ccc([N+](=O)[O-])cc2)C1=O (centres undefined) | > 100
CCOC(=O)C1N(S(=O)(=O)c2ccc(C)cc2)CCC12C(c1ccc(OC)cc1)NC1CCCCC12 (centres undefined) | > 100

Each molecule was assayed on NCI-H226 lung (assay: growth of human tumour cells (NCI), 48 h).

Compound | TGI [µM]
Cc1cccc(NC(=O)/C=C/c2ccc(N(CCC#N)CCC#N)cc2C)c1 | > 100
O=C(Nc1ccc([N+](=O)[O-])cc1)C1C(=O)C(=O)N(c2ccc([N+](=O)[O-])cc2)C1=O (centres undefined) | > 100
CCOC(=O)C1N(S(=O)(=O)c2ccc(C)cc2)CCC12C(c1ccc(OC)cc1)NC1CCCCC12 (centres undefined) | > 100
O=C(/C=C/c1ccccc1)/C=C/c1ccccc1 | > 100

These molecules were tested on LOX IMVI melanoma (assay: growth of human tumour cells (NCI), 48 h).

Compound | TGI [µM]
Cc1cccc(NC(=O)/C=C/c2ccc(N(CCC#N)CCC#N)cc2C)c1 | > 100
O=C(Nc1ccc([N+](=O)[O-])cc1)C1C(=O)C(=O)N(c2ccc([N+](=O)[O-])cc2)C1=O (centres undefined) | 30.3
CCOC(=O)C1N(S(=O)(=O)c2ccc(C)cc2)CCC12C(c1ccc(OC)cc1)NC1CCCCC12 (centres undefined) | > 100
O=C(/C=C/c1ccccc1)/C=C/c1ccccc1 | 31.7

These molecules were tested on SK-MEL-2 melanoma (assay: growth of human tumour cells (NCI), 48 h).

Compound | TGI [µM]
Cc1cccc(NC(=O)/C=C/c2ccc(N(CCC#N)CCC#N)cc2C)c1 | > 100
O=C(Nc1ccc([N+](=O)[O-])cc1)C1C(=O)C(=O)N(c2ccc([N+](=O)[O-])cc2)C1=O (centres undefined) | > 100
O=C(/C=C/c1ccccc1)/C=C/c1ccccc1 | > 100

Each molecule was assayed on MALME-3M melanoma (assay: growth of human tumour cells (NCI), 48 h).

Compound | TGI [µM]
Cc1cccc(NC(=O)/C=C/c2ccc(N(CCC#N)CCC#N)cc2C)c1 | > 100
O=C(Nc1ccc([N+](=O)[O-])cc1)C1C(=O)C(=O)N(c2ccc([N+](=O)[O-])cc2)C1=O (centres undefined) | > 100
CCOC(=O)C1N(S(=O)(=O)c2ccc(C)cc2)CCC12C(c1ccc(OC)cc1)NC1CCCCC12 (centres undefined) | > 100
O=C(/C=C/c1ccccc1)/C=C/c1ccccc1 | 57.7

These molecules were tested on SK-OV-3 ovarian (assay: growth of human tumour cells (NCI), 48 h).

Compound | TGI [µM]
Cc1cccc(NC(=O)/C=C/c2ccc(N(CCC#N)CCC#N)cc2C)c1 | > 100
O=C(Nc1ccc([N+](=O)[O-])cc1)C1C(=O)C(=O)N(c2ccc([N+](=O)[O-])cc2)C1=O (centres undefined) | > 100
CCOC(=O)C1N(S(=O)(=O)c2ccc(C)cc2)CCC12C(c1ccc(OC)cc1)NC1CCCCC12 (centres undefined) | > 100
O=C(/C=C/c1ccccc1)/C=C/c1ccccc1 | > 100

What follows are molecules tested on DMS 273 small cell lung (assay: growth of human tumour cells (NCI), 48 h).

Compound | TGI [µM]
Cc1cccc(NC(=O)/C=C/c2ccc(N(CCC#N)CCC#N)cc2C)c1 | > 100
O=C(Nc1ccc([N+](=O)[O-])cc1)C1C(=O)C(=O)N(c2ccc([N+](=O)[O-])cc2)C1=O (centres undefined) | > 100
CCOC(=O)C1N(S(=O)(=O)c2ccc(C)cc2)CCC12C(c1ccc(OC)cc1)NC1CCCCC12 (centres undefined) | > 100
O=C(/C=C/c1ccccc1)/C=C/c1ccccc1 | > 100

These molecules were tested on SNB-75 CNS (assay: growth of human tumour cells (NCI), 48 h).

Compound | TGI [µM]
Cc1cccc(NC(=O)/C=C/c2ccc(N(CCC#N)CCC#N)cc2C)c1 | > 100
O=C(Nc1ccc([N+](=O)[O-])cc1)C1C(=O)C(=O)N(c2ccc([N+](=O)[O-])cc2)C1=O (centres undefined) | > 100
CCOC(=O)C1N(S(=O)(=O)c2ccc(C)cc2)CCC12C(c1ccc(OC)cc1)NC1CCCCC12 (centres undefined) | 77.8
O=C(/C=C/c1ccccc1)/C=C/c1ccccc1 | > 100

What follows are molecules tested on HT29 colon (assay: growth of human tumour cells (NCI), 48 h).

Compound | TGI [µM]
Cc1cccc(NC(=O)/C=C/c2ccc(N(CCC#N)CCC#N)cc2C)c1 | > 100
O=C(Nc1ccc([N+](=O)[O-])cc1)C1C(=O)C(=O)N(c2ccc([N+](=O)[O-])cc2)C1=O (centres undefined) | > 100
CCOC(=O)C1N(S(=O)(=O)c2ccc(C)cc2)CCC12C(c1ccc(OC)cc1)NC1CCCCC12 (centres undefined) | > 100
O=C(/C=C/c1ccccc1)/C=C/c1ccccc1 | 35.1

The molecules below were run on RXF-631 renal (assay: growth of human tumour cells (NCI), 48 h).

Compound | TGI [µM]
Cc1cccc(NC(=O)/C=C/c2ccc(N(CCC#N)CCC#N)cc2C)c1 | > 100
O=C(Nc1ccc([N+](=O)[O-])cc1)C1C(=O)C(=O)N(c2ccc([N+](=O)[O-])cc2)C1=O (centres undefined) | > 100
CCOC(=O)C1N(S(=O)(=O)c2ccc(C)cc2)CCC12C(c1ccc(OC)cc1)NC1CCCCC12 (centres undefined) | > 100
O=C(/C=C/c1ccccc1)/C=C/c1ccccc1 | > 100

What follows are molecules tested on IGROV1 ovarian (assay: growth of human tumour cells (NCI), 48 h).

Compound | TGI [µM]
Cc1cccc(NC(=O)/C=C/c2ccc(N(CCC#N)CCC#N)cc2C)c1 | > 100
O=C(Nc1ccc([N+](=O)[O-])cc1)C1C(=O)C(=O)N(c2ccc([N+](=O)[O-])cc2)C1=O (centres undefined) | > 100
CCOC(=O)C1N(S(=O)(=O)c2ccc(C)cc2)CCC12C(c1ccc(OC)cc1)NC1CCCCC12 (centres undefined) | > 100
O=C(/C=C/c1ccccc1)/C=C/c1ccccc1 | 66.5

Each molecule was assayed on SNB-19 CNS (assay: growth of human tumour cells (NCI), 48 h).

Compound | TGI [µM]
Cc1cccc(NC(=O)/C=C/c2ccc(N(CCC#N)CCC#N)cc2C)c1 | > 100
O=C(Nc1ccc([N+](=O)[O-])cc1)C1C(=O)C(=O)N(c2ccc([N+](=O)[O-])cc2)C1=O (centres undefined) | > 100
CCOC(=O)C1N(S(=O)(=O)c2ccc(C)cc2)CCC12C(c1ccc(OC)cc1)NC1CCCCC12 (centres undefined) | > 100

What follows are molecules tested on HCT-15 colon (assay: growth of human tumour cells (NCI), 48 h).

Compound | TGI [µM]
Cc1cccc(NC(=O)/C=C/c2ccc(N(CCC#N)CCC#N)cc2C)c1 | > 100
O=C(Nc1ccc([N+](=O)[O-])cc1)C1C(=O)C(=O)N(c2ccc([N+](=O)[O-])cc2)C1=O (centres undefined) | > 100
CCOC(=O)C1N(S(=O)(=O)c2ccc(C)cc2)CCC12C(c1ccc(OC)cc1)NC1CCCCC12 (centres undefined) | > 100
O=C(/C=C/c1ccccc1)/C=C/c1ccccc1 | 70.5

Each molecule was assayed on OVCAR-8 ovarian (assay: growth of human tumour cells (NCI), 48 h).

Compound | TGI [µM]
Cc1cccc(NC(=O)/C=C/c2ccc(N(CCC#N)CCC#N)cc2C)c1 | > 100
O=C(Nc1ccc([N+](=O)[O-])cc1)C1C(=O)C(=O)N(c2ccc([N+](=O)[O-])cc2)C1=O (centres undefined) | > 100
CCOC(=O)C1N(S(=O)(=O)c2ccc(C)cc2)CCC12C(c1ccc(OC)cc1)NC1CCCCC12 (centres undefined) | > 100

The molecules below were run on KM12 colon (assay: growth of human tumour cells (NCI), 48 h).

Compound | TGI [µM]
Cc1cccc(NC(=O)/C=C/c2ccc(N(CCC#N)CCC#N)cc2C)c1 | > 100
O=C(Nc1ccc([N+](=O)[O-])cc1)C1C(=O)C(=O)N(c2ccc([N+](=O)[O-])cc2)C1=O (centres undefined) | > 100
